Laboratory results from US20030203908A1, “Dihydrofolate reductase inhibitors” (priority 2000, published 2003).
Counter-ions that a name gives are not always drawn. Like-named read-outs stand apart in the source and are kept apart here.

What was measured:
[1] = biological target: T1, human DHFR (Homo sapiens, UniProt P00374); test: Inhibition of human DHFR (I50-derived Ki); format: biochemical; conditions: human DHFR;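 note: recombinant human DHFR expressed in E. coli and purified by methotrexate affinity chromatography, enzyme activity followed spectrophotometrically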
T1 construct: made in house; host or cells: E. coli M15
T1 sequence (P00374 1-187): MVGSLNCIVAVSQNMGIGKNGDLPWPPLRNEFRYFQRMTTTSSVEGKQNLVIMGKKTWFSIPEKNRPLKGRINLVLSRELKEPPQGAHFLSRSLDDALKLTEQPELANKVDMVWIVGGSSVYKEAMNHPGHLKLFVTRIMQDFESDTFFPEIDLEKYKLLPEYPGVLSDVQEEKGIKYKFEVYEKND
Method: (§1) Folic acid and NADPH, were purchased from Sigma. Dihydrofolate was prepared from folic acid dithionate reduction. Methotrexate (MTX) was from Lederle Laboratories. MTX sepharose CL-6B was prepared according to the protocol described by Dann. et al. IPTG came from Boehringer Manheim. The expression system used for recombinant human DHFR production, which includes the plasmid PB-E1/RB SII, SphI-HDHFR expressed in E. coli M15, was supplied by Santi, D. V (Department of Biochemistry and Biophysics and Department of Pharmaceutical Chemistry, University of California). Recombinant T. Cruzi DHFR-TS was produced using the system pET 11c with the insertion of the complete ORF of the gene tc-dhfrts. The resulting plasmid was called pET DT.
(§2) Human and T.cruzi DHFR were produced using inducible expression systems. For human DHFR, fresh overnight cultures of E. coli M15, transformed with the plasmid, pB-E1/RB SII, SphI-HDHFR, were grown in LB and 0.1 mg/ml ampicillin medium at 28° C. For T.cruzi DHFR-TS, cultures of E. coli, BL21 (DE3) transformed with the plasmid pETDT system were grown at 37° C. The same purification protocol was used for both systems. When OD600 was at 0.8, cells pellets were collected by centrifugation, suspended in 50 ml of LB medium, containing 0.1 mg/ml of ampicillin. 10 ml of this preinocule was added to 2 litres of LB medium. Cultures were shaken at 28° C. or 37° C. (for human and T. cruzi DHFR respectively) and induction with IPTG ImM was performed when OD600 reached 0.8. After IPTG induction, cells were grown overnight in a shaker at 28° C. or 5 hours at 28° C. or 37° C. (for human and T. cruzi DHFR respectively) and then harvested by centrifugation.
(§3) Cell pellets were suspended in sonication buffer (2× TES DHFR:TES 100 mM, 2-mercaptoethanol 150 mM, EDTA 2 mM pH=7) containing protease inhibitors.
(§4) Crude extract was circulated through the MTX-Sepharose column at 4° C. at a flow rate of 0.2 ml/min until the protein was bound to the resin. The column was washed with an excess of buffer B (KH2PO410 mM pH 7, KC1 1M). Protein was eluted at 0.2 min/ml with an elution buffer (100 mM TES, 10 mM DTT, 2 mM EDTA, DHF 8.5 mM), the elution profile was collected in 1 ml fractions using a Pharmacia LKB Frac 200 collector. Finally, the protein was desalted using molecular size exclusion chromatography in a Pharmacia G-25 column. Fractions containing DHFR activity were pooled and concentrated by ultrafiltration using centripreps Amicon.
(§5) The purity of the protein preparation was assessed by detection of a single band of the correct molecular weight stained with coomasie blue following a 12% SDS-PAGE. Protein concentration was determined by the method of Bradford using a BSA as a standard. DHFR activity was measured spectrophotometrically by monitoring the decrease in absorbance at 340 mm. […] One unit of enzyme, is defined as the amount of enzyme which produces 1 nmol of product per min using ε of 12300M^−1 at 340 nm.
(§6) Inhibition of dihydrofolate reductases by 1,2-dihydro-1,3,5 triazines was analysed with T. cruzi and human DHFR.
(§7) DHFR assays contained 30 mM dihydrofolate, 0.1 mM NADPH, 50 mM TES buffer pH 7, 75 mM 2-mercaptoethanol and specified amounts of inhibitors. The reaction was initiated by addition of 2.8 or 2.3 units of T. cruzi and human, respectively, and monitored at 340 nm.
(§8) Selective inhibition of dihydrofolate reductase by 1,2-dihydro-1,3,5-triazines was analysed with T. cruzi and human DHFR. DHFR assays contained 30 μM dihydrofolate, 0.1 mM NADPH, 50 mM TES buffer pH 7, 75 mM β-mercaptoethanol and specified amounts of inhibitors. The reaction was initiated by addition of 2.8 or 2.3 units of T. cruzi and human enzyme, respectively, and monitored at 340 nm. […] KiI 50=[I]0.5/((1+[S])/Km)

[2] = biological target: T2, wild-type (wt) DHFR from Plasmodium falciparum (Plasmodium falciparum, UniProt P13922, N108S/R59C); test: Inhibition of wild-type pfDHFR (spectrophotometric, Ki); format: biochemical;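 note: Affinity-purified enzyme, initial reaction rates measured across a range of inhibitor concentrations, Ki obtained by nonlinear least-squares fitting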
T2 construct: The Dihydrofolate Reductase Domain of Plasmodium falciparum Thymidylate Synthase-Dihydrofolate Reductase; made in house
T2 sequence (P13922 10-228 R59C/N108S): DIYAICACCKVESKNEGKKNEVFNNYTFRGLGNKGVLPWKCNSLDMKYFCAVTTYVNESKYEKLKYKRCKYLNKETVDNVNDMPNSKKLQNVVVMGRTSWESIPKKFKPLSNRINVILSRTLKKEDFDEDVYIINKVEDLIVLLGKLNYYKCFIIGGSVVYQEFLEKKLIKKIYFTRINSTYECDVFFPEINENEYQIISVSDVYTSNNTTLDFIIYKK
Method: (§9) For determination of the Ki values of a number of synthesized analogues, the assay reactions were initiated with affinity-purified enzyme (^˜0.005-0.01 U ml^−1), and the initial velocities in the presence of varying concentrations of inhibitors were analysed by non-linear least square fit using Kaleidagraph™ software.

[3] = biological target: T3, DHFR-TS from Trypanosoma cruzi (Trypanosoma cruzi, UniProt Q27793); test: Inhibition of T. cruzi DHFR-TS (I50-derived Ki);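 for all read-outs here: enzymes were recombinant T. cruzi DHFR-TS and human DHFR, both expressed in E. coli and purified on a methotrexate affinity column, with dihydrofolate and NADPH as substrates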; format: biochemical; conditions: for Selectivity: human Ki / T. cruzi Ki
T3 construct: pET 11c with the insertion of the complete ORF of the gene tc-dhfrts; made in house; host or cells: E. coli BL21 (DE3)
T3 sequence (Q27793 whole entry): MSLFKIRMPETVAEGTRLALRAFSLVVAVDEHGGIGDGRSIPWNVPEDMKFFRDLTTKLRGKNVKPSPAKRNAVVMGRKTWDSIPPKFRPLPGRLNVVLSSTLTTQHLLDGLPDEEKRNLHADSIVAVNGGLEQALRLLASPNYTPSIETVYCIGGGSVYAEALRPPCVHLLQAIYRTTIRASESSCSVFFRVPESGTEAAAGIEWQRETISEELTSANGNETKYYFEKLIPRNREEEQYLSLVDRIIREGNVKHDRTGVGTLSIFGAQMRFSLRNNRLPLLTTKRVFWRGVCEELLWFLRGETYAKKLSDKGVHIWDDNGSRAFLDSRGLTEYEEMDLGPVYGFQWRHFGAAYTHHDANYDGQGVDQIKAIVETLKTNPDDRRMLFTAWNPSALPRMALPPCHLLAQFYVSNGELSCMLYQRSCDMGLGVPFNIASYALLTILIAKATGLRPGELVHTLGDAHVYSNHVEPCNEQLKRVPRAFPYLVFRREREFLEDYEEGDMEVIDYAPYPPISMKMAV

[4] = system: A16V.S108T mutant (mut) of DHFR from Plasmodium falciparum; test: biochemical; conditions: resistance factor
Method: as §9

[5] = biological target: T4, A16V.S108T mutant (mut) of DHFR from Plasmodium falciparum (Plasmodium falciparum, UniProt A7UD81, A16V/S108T); test: biochemical
T4 construct: The Dihydrofolate Reductase Domain of Plasmodium falciparum Thymidylate Synthase-Dihydrofolate Reductase; made in house
T4 sequence (A7UD81 1-231 A16V/S108T): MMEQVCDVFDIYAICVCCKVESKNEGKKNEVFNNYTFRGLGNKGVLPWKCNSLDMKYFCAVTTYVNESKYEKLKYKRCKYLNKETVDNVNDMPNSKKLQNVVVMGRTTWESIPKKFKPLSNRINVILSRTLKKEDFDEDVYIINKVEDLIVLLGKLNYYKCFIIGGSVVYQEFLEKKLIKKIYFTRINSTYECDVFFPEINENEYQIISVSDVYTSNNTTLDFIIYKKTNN
Method: as §9

[6] = system: wild-type (TM4/8.2) strain of P. falciparum; test: microbe, parasite or virus in culture; format: cell-based, Plasmodium falciparum; conditions: Plasmodium falciparum; wild-type strain TM4/8.2
Method: Mol. Biochem. Parasitol. […] Science, 1976, 193, 673-675]. In vitro antimalarial activity was determined by using [^3H]-hypoxanthine incorporation method [Desjardins, R. E.; Canfield, C. J.; Haynes, J. D.; Chulay, J. D. Quantitative assessment of antimalarial activity in vitro by a semiautomated microdilution technique. Antimicrob Agents Chemother. 1979, 16, 710-718]. The drugs were initially dissolved in DMSO and diluted with the culture media. Aliquots (25 μl) of drug solution of different concentrations was placed in 96-well plate together with 200 μl of 1.5% cell suspension of parasitized erythrocytes containing 1-2% parasitemia. Final concentration of DMSO was 0.1% where there was no effect on the parasite growth. The mixtures were incubated in a 3% CO2 incubator at 37° C. After 24 h of incubation, 25 μl (0.25 μCi) of [^3H]-hypoxanthine were added to each well. The mixtures were further incubated under the same condition for 18-24 h. DNA of parasites was harvested onto glass filter paper (Unifilter, Packard, USA). The filters were dried and liquid scintillation fluid was added for radioactivity measurement in a 6-probe liquid scintillation-counter (Packard, USA).

[7] = biological target: human DHFR; test: Inhibition of human DHFR (I50-derived Ki); format: biochemical;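 note: recombinant human DHFR expressed in E. coli and purified by methotrexate affinity chromatography, enzyme activity followed spectrophotometrically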
Method: as §1, §2, §3, §4, §5, §6, §7, §8

| Compound | Ki ([2]; Ki(wt) nM) | Ki [3] | Ki(mut)/Ki(wt) [4] | Ki [5] | IC50 [6] | other results |
| --- | --- | --- | --- | --- | --- | --- |
| NC1=NC(c2cccc(OCc3ccccc3)c2)N(c2cccc(OCc3ccccc3)c2)C(N)=N1 (stereo not drawn) [R2=3-BnOC6H4, X=H, Y=BnO, 1-m-benzyloxyphenyl-2-m-benzyloxyphenyl-4,6-diamino-1,2-dihydro-1,3,5-triazine] | 4.3 ± 0.2 nM | 0.128 µM | 1.7 | 0.0072 ± 0.001 µM | – | Ki ([1]; Human Ki (I50)(nM)): 2130 nM; Selectivity [3]: 16.6 |
| COc1ccc(C2N=C(N)N=C(N)N2c2cccc(Cl)c2)cc1OC (stereo not drawn) [(Ib) R2=3,4-dimethoxyphenyl] | 27.2 ± 2 nM | – | 6.0 | 0.164 ± 0.006 µM | 6.82 µM | – |
| NC1=NC(c2ccccc2)N(c2ccc(Cl)c(Cl)c2)C(N)=N1 (stereo not drawn) [(Ic) R2=Ph, 1-(3′,4′-Dichlorophenyl)-2-phenyl-4,6-diamino-1,2-dihydro-1,3,5-triazine hydrochloride] | – | – | – | – | 0.026 µM | – |
| CCCOc1ccc(C2N=C(N)N=C(N)N2c2cccc(Cl)c2)cc1 (stereo not drawn) [(Ib) R2=4-(n-propyloxy)phenyl] | – | – | – | 0.0093 ± 0.0006 µM | 0.248 µM | – |
| NC1=NC(c2cccc(OCc3ccccc3)c2)N(c2cccc(Cc3ccccc3)c2)C(N)=N1 (stereo not drawn) [R2=3-BnOC6H4, X=H, Y=Bn, 1-m-benzylphenyl-2-m-benzyloxyphenyl-4,6-diamino-1,2-dihydro-1,3,5-triazine] | 2.3 ± 0.3 nM | 0.032 µM | 3.2 | 0.0074 ± 0.0009 µM | – | Ki (human)/Ki (P. falc. mut) [7]: 39; Ki (human)/Ki (P. falc. wt) [7]: 127; Ki (human)/Ki (T. cruzi) [7]: 9.1; Ki ([1]; Human Ki (I50)(nM)): 292 nM; Selectivity [3]: 9.1 |
| NC1=NC(c2cccc(Oc3cc(Cl)cc(Cl)c3)c2)N(c2cccc(Cl)c2)C(N)=N1 (stereo not drawn) [(Ib) R2=3-(3,5-dichlorophenoxy)phenyl] | 1.8 ± 0.6 nM | – | 2.6 | 0.0047 ± 0.0004 µM | 5.47 µM | – |
| Cl.NC1=NC(c2ccccc2)N(c2cccc(Cl)c2)C(N)=N1 (stereo not drawn) [(Ib) R2=phenyl, 1-(3′-Chlorophenyl)-2-phenyl-4,6-diamino-1,2-dihydro-1,3,5-triazine hydrochloride] | 11.7 ± 2.5 nM | – | 0.9 | 0.01 ± 0.007 µM | 0.565 µM | – |
| COc1cccc(C2N=C(N)N=C(N)N2c2cccc(Cl)c2)c1 (stereo not drawn) [(Ib) R2=3-methoxyphenyl] | 5.4 ± 0.2 nM | 0.24 µM | 10.9 | 0.0591 ± 0.0063 µM | 4.37 µM | Ki ([1]; Human Ki (I50)(nM)): 1270 nM; Selectivity [3]: 5.3 |
| COc1cc(OC)cc(C2N=C(N)N=C(N)N2c2ccc(Cl)cc2)c1 (stereo not drawn) [(Ia) R2=3,5-dimethoxyphenyl] | 38.3 ± 8 nM | 0.2 µM | 2.6 | 0.1 ± 0.007 µM | 3.25 µM | Ki ([1]; Human Ki (I50)(nM)): 25800 nM; Selectivity [3]: 129 |
| Cl.NC1=NCN(c2ccccc2)C(N)=N1 [R=H, X=H, 1-(phenyl)-4,6-diamino-1,2-dihydro-1,3,5-triazine hydrochloride] | 329 ± 27 nM | – | 1.8 | 0.585 ± 0.07 µM | – | Ki (human)/Ki (P. falc. mut) [7]: 2.44; Ki (human)/Ki (P. falc. wt) [7]: 4.35; Ki ([1]; read-out: Human Ki (I50)): 1430 nM |
| COc1ccc(Oc2cccc(C3N=C(N)N=C(N)N3c3ccc(Cl)c(Cl)c3)c2)cc1 (stereo not drawn) [(Ic) R2=3-(4-methoxyphenoxy)phenyl] | 1.9 ± 0.3 nM | – | 3.9 | 0.0074 ± 0.0008 µM | 2.93 µM | – |
| NC1=NC(c2cccc(O)c2)N(c2cccc(Cl)c2)C(N)=N1 (stereo not drawn) [(Ib) R2=3-hydroxyphenyl] | 27.9 ± 4.5 nM | – | 0.7 | 0.0197 ± 0.0024 µM | 0.551 µM | – |
| COc1cccc(C2N=C(N)N=C(N)N2c2ccc(Cl)cc2)c1 (stereo not drawn) [(Ia) R2=m-methoxyphenyl] | 10.4 ± 1.4 nM | – | 6.0 | 0.0628 ± 0.0024 µM | 0.577 µM | – |
| COc1ccc(C2N=C(N)N=C(N)N2c2ccc(F)cc2)cc1 (stereo not drawn) [R2=4-MeOC6H4, X=F, Y=H] | – | 0.061 µM | – | – | – | Ki (human)/Ki (T. cruzi) [7]: 441; Ki ([1]; Human Ki (I50)(nM)): 26900 nM; Selectivity [3]: 441 |
| NC1=NCN(c2ccc(Cl)c(Cl)c2)C(N)=N1 [(Ic) R2=H] | 5.3 ± 0.7 nM | 0.036 µM | 8.2 | 0.0436 ± 0.0058 µM | 0.123 µM | Ki (human)/Ki (T. cruzi) [7]: 0.19; Selectivity [3]: 1.9 |
| COc1cc(C2N=C(N)N=C(N)N2c2cccc(Cl)c2)cc(OC)c1OC (stereo not drawn) [(Ib) R2=3,4,5-trimethoxyphenyl] | 960 ± 79 nM | – | 1.0 | 1.01 ± 0.027 µM | > 50 µM | – |
| NC1=NC(c2ccccc2)N(c2ccc(Cl)cc2)C(N)=N1 (stereo not drawn) [(Ia) R2=phenyl, 1-(4′-Chlorophenyl)-2-phenyl-4,6-diamino-1,2-dihydro-1,3,5-triazine hydrochloride] | – | 0.042 µM | – | 0.0493 ± 0.0033 µM | 0.027 µM | Ki ([1]; read-out: Human Ki (I50)): 3870 nM |
| NC1=NC(c2cccc(Oc3ccc(Cl)cc3)c2)N(c2ccc(Cl)cc2)C(N)=N1 (stereo not drawn) [(Ia) R2=3-(4-chlorophenoxy)phenyl] | 1.4 ± 0.3 nM | – | 5.3 | 0.0075 µM | 2.85 µM | – |
| NC1=NC(c2ccc(Br)cc2)N(c2cccc(Cl)c2)C(N)=N1 (stereo not drawn) [(Ib) R2=4-bromophenyl] | 27 ± 4.5 nM | – | 0.8 | 0.0219 ± 0.0025 µM | 9.1 µM | – |
| NC1=NC(c2cccc(Oc3ccccc3)c2)N(c2cccc(-c3ccccc3)c2)C(N)=N1 (stereo not drawn) [1-m-biphenyl-2-m-phenoxyphenyl-4,6-diamino-1,2-dihydro-1,3,5-triazine] | 2 nM | – | 2.2 | 0.0048 ± 0.0009 µM | – | – |
| NC1=NCN(c2ccc(Br)cc2)C(N)=N1 [R2=H, X=Br, Y=H] | – | 0.1 µM | – | – | – | Ki ([1]; Human Ki (I50)(nM)): 480 nM; Selectivity [3]: 4.8 |
| N#Cc1ccc(C2N=C(N)N=C(N)N2c2ccc(Cl)cc2)cc1 (stereo not drawn) [(Ia) R2=p-cyanophenyl] | 11.3 ± 1.4 nM | 0.65 µM | – | 0.205 ± 0.022 µM | 0.804 µM | – |
| COc1cc(OC)cc(C2N=C(N)N=C(N)N2c2cccc(Cl)c2)c1 (stereo not drawn) [(Ib) R2=3,5-dimethoxyphenyl] | 79.4 ± 7 nM | – | 0.4 | 0.0309 ± 0.003 µM | > 50 µM | – |
| COc1ccc(C2N=C(N)N=C(N)N2c2cccc(Cl)c2)cc1 (stereo not drawn) [(Ib) R2=4-methoxyphenyl] | 21.8 ± 1 nM | – | 0.6 | 0.0125 ± 0.0009 µM | 2.56 µM | – |
| NC1=NC(c2cccc(Oc3ccccc3)c2)N(c2ccc(Cl)c(Cl)c2)C(N)=N1 (stereo not drawn) [(Ic) R2=3-phenoxyphenyl] | 1.9 ± 0.3 nM | – | 2.7 | 0.0052 ± 0.0006 µM | 0.33 µM | – |
| NC1=NC(c2ccc(OCc3cc(F)cc(F)c3)cc2)N(c2cccc(Cl)c2)C(N)=N1 (stereo not drawn) [(Ib) R2=4-(3,5-difluorobenzyloxy)phenyl] | 4.4 ± 0.4 nM | – | 1.7 | 0.0074 ± 0.0007 µM | 3.78 µM | – |
| CC1(C)N=C(N)N=C(N)N1c1ccc(Cl)cc1 [cycloguanil, Cycloguanil, reference compound] | – | – | – | 1.31 µM | 0.04 µM | Ki ([2]; read-out: Ki(wt)): 1.5 nM; Ki ([3]; T. cruzi DHFR-TS, read-out: T. cruzi Ki (I50)): 0.37 µM |
| NC1=NC(c2ccc(O)cc2)N(c2ccc(Cl)cc2)C(N)=N1 (stereo not drawn) [(Ia) R2=p-hydroxyphenyl] | 11.3 ± 1.7 nM | – | 8.6 | 0.098 ± 0.01 µM | – | – |
| COc1ccc(C2N=C(N)N=C(N)N2c2ccc(Cl)cc2)cc1OC (stereo not drawn) [(Ia) R2=3,4-dimethoxyphenyl] | 32.7 ± 2 nM | 0.386 µM | 3.8 | 0.124 ± 0.005 µM | 2.27 µM | Ki ([1]; Human Ki (I50)(nM)): 25700 nM; Selectivity [3]: 67 |
